Ten compounds from ChEMBL document CHEMBL1201862, “PubChem BioAssay data set” (2004) can be followed below.

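Growth conditions: 96-well plates. Treatment: test compound, 48 hours, 5 concentrations. Analysis: linear interpolation between bracketing concentrations; unreached endpoints set to highest concentration. At the GI50, growth is halved.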 Calls of active or inactive are those of the source. Cut-off read from the data, not from the text of the source: active = GI50 up to about 1.1 µM and inactive = higher. Bounds are passed on as bounds.

Test systems include BT-549; OVCAR-4; 786-0; EKVX; SNB-75; MDA-MB-435; CAKI-1; A549; Hs-578T; HOP-62; M14; SK-MEL-2; MCF7; LOX IMVI; UACC-257; MDA-MB-231; DU-145; SF-295; ACHN; NCI-H226.
What all share (assay): NCI tumour cell line growth inhibition, 48 h

Turning to `CCOC(=O)c1sc(=S)n(-c2ccc(Cl)cc2)c1-n1cc(-c2ccccc2)c(C#N)c1N`, the GI50 was 23.7 µM (inactive) in the experiment on BT-549; 8.85 µM (inactive) in the experiment with OVCAR-4; 11 µM (inactive) with 786-0; 22.5 µM (inactive) in the experiment with EKVX; 16 µM (inactive) in the experiment with SNB-75; 41 µM (inactive) with MDA-MB-435. Besides, the GI50 in the experiment on CAKI-1 is > 100 µM (inactive); in the experiment with A549, 18.8 µM (inactive); in the experiment on Hs-578T, 4.19 µM (inactive); in the experiment with HOP-62, 3.13 µM (inactive); in the experiment on M14, 53.1 µM (inactive); in the experiment on SK-MEL-2, 20.4 µM (inactive). Further, the GI50 is 15.7 µM (inactive) with MCF7; 43.5 µM (inactive) with LOX IMVI; 41.4 µM (inactive) in the experiment with UACC-257; 17.6 µM (inactive) in the experiment on MDA-MB-231; 6.81 µM (inactive) in the experiment on DU-145; 13.3 µM (inactive) in the experiment on SF-295. Besides, the GI50 was 16.7 µM (inactive) in the experiment with ACHN and 13.6 µM (inactive) in the experiment with NCI-H226.

Take `CS(=O)(=O)C(=Cc1ccccc1Cl)S(C)(=O)=O`: the GI50 is > 100 µM (inactive) with BT-549; > 100 µM (inactive) with OVCAR-4; > 100 µM (inactive) with 786-0; > 100 µM (inactive) in the experiment on EKVX; > 100 µM (inactive) with SNB-75; > 27.8 µM (inactive) in the experiment on MDA-MB-435. Besides, the GI50 is > 100 µM (inactive) with CAKI-1; > 100 µM (inactive) in the experiment with A549; > 91.2 µM (inactive) in the experiment with Hs-578T; > 100 µM (inactive) with HOP-62; > 80.2 µM (inactive) in the experiment with M14; > 100 µM (inactive) with SK-MEL-2. The GI50 with MCF7 is > 40.3 µM (inactive); in the experiment on LOX IMVI, > 100 µM (inactive); in the experiment on UACC-257, > 100 µM (inactive); in the experiment on MDA-MB-231 it was > 100 µM (inactive); with DU-145, > 100 µM (inactive); in the experiment on SF-295, > 46.5 µM (inactive). For the same compound, the GI50 in the experiment with ACHN and with NCI-H226 was > 100 µM (inactive) in each case.

As for `CC(=O)NCC1OC2COC(c3ccccc3)OC2C2N=C(c3ccccc3)OC12` (stereo not given), the GI50 is 68.1 µM (inactive) in the experiment on BT-549; 85.9 µM (inactive) in the experiment with OVCAR-4; > 100 µM (inactive) in the experiment on 786-0; 38 µM (inactive) in the experiment with EKVX; 38.2 µM (inactive) with SNB-75; 85.3 µM (inactive) in the experiment on MDA-MB-435. Besides, the GI50 is > 100 µM (inactive) with CAKI-1; 37.8 µM (inactive) in the experiment with A549; 51.5 µM (inactive) in the experiment with Hs-578T; > 100 µM (inactive) with HOP-62; 60.8 µM (inactive) in the experiment with M14; 53.6 µM (inactive) in the experiment with SK-MEL-2. In addition, the GI50 in the experiment with MCF7 was 41.9 µM (inactive); in the experiment on LOX IMVI, 79.6 µM (inactive); in the experiment on UACC-257, 57.5 µM (inactive); with MDA-MB-231, > 100 µM (inactive); in the experiment with DU-145, > 100 µM (inactive); with SF-295, 35.3 µM (inactive). Also, the GI50 with ACHN is 45.5 µM (inactive); in the experiment on NCI-H226 it was 67.5 µM (inactive).

On to `CNc1nc2c(C)ccc3nc(N(C)C)[nH]c3c-2n1`, for which the GI50 is 84.7 µM (inactive) with BT-549; 19.5 µM (inactive) in the experiment on OVCAR-4; 51.3 µM (inactive) with 786-0; 30.1 µM (inactive) with EKVX; 41.8 µM (inactive) in the experiment on SNB-75; 50.8 µM (inactive) in the experiment with MDA-MB-435. Further, the GI50 with CAKI-1 was 65.5 µM (inactive); in the experiment on A549 it was 39.9 µM (inactive); with Hs-578T, 97.9 µM (inactive); with HOP-62, 43.7 µM (inactive); in the experiment with M14, 25.4 µM (inactive); with SK-MEL-2 it was 93.1 µM (inactive). Besides, the GI50 in the experiment on MCF7 is 31.5 µM (inactive); in the experiment on LOX IMVI, 31.7 µM (inactive); in the experiment with UACC-257, 33.3 µM (inactive); with MDA-MB-231 it was 43.6 µM (inactive); in the experiment on DU-145, 42.2 µM (inactive); in the experiment on SF-295, 55.5 µM (inactive). Also, the figures for the GI50 with ACHN and in the experiment with NCI-H226 were 15.2 µM (inactive) and 76.7 µM (inactive), respectively.

Turning to `O=c1[nH]c(=O)n(C2CC(O)C(CO)O2)c2nc3cc4ccccc4cc3nc12` (stereo not given), the GI50 with BT-549 was > 100 µM (inactive); in the experiment on OVCAR-4, > 100 µM (inactive); in the experiment with 786-0, > 100 µM (inactive); in the experiment on EKVX, > 100 µM (inactive); in the experiment with SNB-75, 74.8 µM (inactive); in the experiment on MDA-MB-435 it was > 100 µM (inactive). Also, the GI50 was > 100 µM (inactive) with CAKI-1; > 100 µM (inactive) in the experiment on A549; > 100 µM (inactive) in the experiment with Hs-578T; 33.9 µM (inactive) in the experiment with HOP-62; > 100 µM (inactive) with M14; > 100 µM (inactive) in the experiment with SK-MEL-2. The GI50 with MCF7 was > 100 µM (inactive); in the experiment on LOX IMVI, > 100 µM (inactive); in the experiment on UACC-257, > 100 µM (inactive); with MDA-MB-231, 52.7 µM (inactive); in the experiment with DU-145, > 100 µM (inactive); in the experiment with SF-295, 75.2 µM (inactive). Further, the GI50 in the experiment with ACHN and with NCI-H226 was > 100 µM (inactive) throughout.

In the case of `CCCCC1C=Cn2c(=O)oc3c(OC(C)C)c(OC(C)C)c(O)c1c32` (stereo not given), the GI50 with BT-549 is 14.3 µM (inactive); in the experiment on OVCAR-4, 21.5 µM (inactive); in the experiment on 786-0, 20 µM (inactive); with EKVX, 29.9 µM (inactive); in the experiment with SNB-75 it was 13 µM (inactive); in the experiment with MDA-MB-435, 12.5 µM (inactive). Further, the GI50 is 15.1 µM (inactive) in the experiment on CAKI-1; 17.2 µM (inactive) in the experiment with A549; 18.3 µM (inactive) with Hs-578T; 20.7 µM (inactive) in the experiment with HOP-62; 22.3 µM (inactive) with M14; 15.3 µM (inactive) in the experiment with SK-MEL-2. The GI50 in the experiment on MCF7 is 12.2 µM (inactive); with LOX IMVI, 14.3 µM (inactive); with UACC-257, 15.6 µM (inactive); with MDA-MB-231, 14.1 µM (inactive); in the experiment with DU-145 it was 14.8 µM (inactive); with SF-295, 18.5 µM (inactive). Besides, the GI50 is 36.6 µM (inactive) with ACHN and 14 µM (inactive) in the experiment on NCI-H226.

On to `CSC1=C(C)S/C(=C\c2ccc(/C=C3\SC(C)=C(SC)S3)cc2)S1`, for which the GI50 in the experiment on BT-549 is > 100 µM (inactive); with OVCAR-4, > 100 µM (inactive); in the experiment with 786-0, > 100 µM (inactive); in the experiment with EKVX it was > 100 µM (inactive); with SNB-75, 41.6 µM (inactive); in the experiment with MDA-MB-435, > 100 µM (inactive). The GI50 was > 100 µM (inactive) in the experiment on CAKI-1; > 100 µM (inactive) in the experiment with A549; 83 µM (inactive) in the experiment on Hs-578T; 33.5 µM (inactive) with HOP-62; > 100 µM (inactive) in the experiment on M14; > 100 µM (inactive) with SK-MEL-2. Besides, the GI50 in the experiment with MCF7 was > 100 µM (inactive); with LOX IMVI, > 100 µM (inactive); in the experiment with UACC-257, > 100 µM (inactive); in the experiment on MDA-MB-231 it was > 100 µM (inactive); in the experiment on DU-145, > 100 µM (inactive); in the experiment on SF-295 it was 88.9 µM (inactive). For the same compound, the GI50 in the experiment with ACHN was > 100 µM (inactive); in the experiment with NCI-H226, 92.5 µM (inactive).

Consider `COC(=O)CNC(=O)c1cc(C)cc2c1Oc1c(cc(C)cc1C(=O)NCC(=O)OC)S2`, for which the GI50 in the experiment with BT-549 was > 100 µM (inactive); in the experiment with OVCAR-4, > 100 µM (inactive); in the experiment on 786-0, 39.4 µM (inactive); with EKVX, > 100 µM (inactive); with SNB-75 it was > 100 µM (inactive); with MDA-MB-435, > 100 µM (inactive). The GI50 with CAKI-1 is > 100 µM (inactive); with A549 it was 37.6 µM (inactive); in the experiment with Hs-578T it was 65.6 µM (inactive); in the experiment with HOP-62 it was > 100 µM (inactive); in the experiment on M14, 42.6 µM (inactive); in the experiment with SK-MEL-2, > 100 µM (inactive). In addition, the GI50 in the experiment with MCF7 is 98.9 µM (inactive); in the experiment on LOX IMVI it was 96.4 µM (inactive); in the experiment with UACC-257 it was 49.5 µM (inactive); in the experiment with MDA-MB-231, > 100 µM (inactive); with DU-145, 45.4 µM (inactive); in the experiment on SF-295 it was 56.9 µM (inactive). In addition, the GI50 in the experiment on ACHN was 25.6 µM (inactive); in the experiment on NCI-H226, > 100 µM (inactive).

As to `C/C(=N\NC(=S)NC(C)(C)C)c1nc2cccnc2[nH]1`, the GI50 is 2.55 µM (inactive) with BT-549; 0.634 µM (active) in the experiment with OVCAR-4; 3.02 µM (inactive) in the experiment with 786-0; 2.5 µM (inactive) in the experiment on EKVX; 16.3 µM (inactive) in the experiment on SNB-75; 5.37 µM (inactive) with MDA-MB-435. Moreover, the GI50 is 3.33 µM (inactive) with CAKI-1; 3.29 µM (inactive) in the experiment with A549; 3.36 µM (inactive) in the experiment on Hs-578T; 6.15 µM (inactive) in the experiment on HOP-62; 3.33 µM (inactive) in the experiment with M14; 3.85 µM (inactive) with SK-MEL-2. Further, the GI50 is 0.309 µM (active) with MCF7; 3.4 µM (inactive) in the experiment on LOX IMVI; 3.09 µM (inactive) in the experiment with UACC-257; 3.55 µM (inactive) in the experiment with MDA-MB-231; 2.43 µM (inactive) with DU-145; 2.8 µM (inactive) in the experiment with SF-295. The GI50 in the experiment on ACHN was 2.82 µM (inactive); in the experiment on NCI-H226, 3.4 µM (inactive).

With `CCOC(=O)C(C)c1nc2ccc(C(F)(F)F)cc2[nH]c1=O` (stereo not given), the GI50 in the experiment with BT-549 is 42 µM (inactive); in the experiment with OVCAR-4 it was 42.5 µM (inactive); with 786-0, > 100 µM (inactive); in the experiment with EKVX, 43.1 µM (inactive); in the experiment on SNB-75, 46.6 µM (inactive); in the experiment on MDA-MB-435 it was > 100 µM (inactive). For the same compound, the GI50 is > 10 µM (inactive) in the experiment on CAKI-1; 73.5 µM (inactive) in the experiment on A549; 68.4 µM (inactive) in the experiment with Hs-578T; > 100 µM (inactive) in the experiment with HOP-62; 80 µM (inactive) with M14; > 100 µM (inactive) with SK-MEL-2. Also, the GI50 in the experiment with MCF7 is 60.8 µM (inactive); in the experiment with LOX IMVI, 66.2 µM (inactive); with UACC-257, 58.7 µM (inactive); with MDA-MB-231 it was 77.1 µM (inactive); with DU-145 it was 69.2 µM (inactive); in the experiment with SF-295 it was 45.5 µM (inactive). For the same compound, the GI50 with ACHN was > 100 µM (inactive); in the experiment with NCI-H226 it was 73.6 µM (inactive).
